In ChEMBL document CHEMBL1201862, “PubChem BioAssay data set” (2004):
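The compound was tested at five concentrations on cells cultured in 96-well plates, with a 48-hour exposure period. GI50 = concentration required for 50% inhibition of growth.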 The source made the active and inactive calls. Rule as the data show it: active = GI50 up to about 1.1 µM and inactive = higher.

Experiments:
Assay in all cases: growth of human tumour cells (NCI), 48 h
RXF 631 = test system: RXF 631
TK-10 = test system: TK-10
RXF 393 = test system: RXF 393
XF498 = test system: XF498
DLD-1 = test system: DLD-1
HOP-18 = test system: HOP-18
SR = test system: SR
LXFL 529 = test system: LXFL 529

Structure (SMILES) | GI50 (RXF 631) | GI50 (TK-10) | GI50 (RXF 393) | GI50 (XF498) | GI50 (DLD-1) | GI50 (HOP-18) | GI50 (SR) | GI50 (LXFL 529)
COc1ccc(C2C(C(=O)O)=C(CO)Oc3cc4c(cc32)OCO4)cc1 (stereo not given) | > 100 µM (inactive) | > 100 µM (inactive) | > 100 µM (inactive) | > 100 µM (inactive) | > 100 µM (inactive) | > 100 µM (inactive) |  | 
OC[C@H]1NC[C@@H](O)[C@@H](O)[C@H]1O |  | > 100 µM (inactive) | > 100 µM (inactive) |  |  |  | > 100 µM (inactive) | 
O=c1[nH]nc(NCc2ccccc2)c2nnn(Cc3ccccc3)c12 |  | > 100 µM (inactive) |  |  |  |  | > 100 µM (inactive) | 
CC1C(O)[C@@]2(OC[C@@]34C(=O)CC5(O)[C@H](CCC6Cc7nc8c(nc7C[C@]65C)CC5CC[C@@H]6C7=C[C@H]9O[C@@]%10(O[C@@](C)(CO)C[C@@H]%10O)C(C)[C@@]9(O)[C@]7(C)[C@@H](O)CC6[C@]5(C)C8)C3=CC[C@H]4C2C)OC1(C)C (stereo not given in full) |  |  | < 0.000355 µM (active) |  | 0.0607 µM (active) | 0.849 µM (active) |  | 
C[Si](C)(OCCS(=O)(=O)O)C1(Cc2cccc3ccccc23)S(=O)(=O)OCCOS1(=O)=O |  | 20.9 µM (inactive) |  |  |  |  |  | 
NC(CCOCCP(=O)(O)O)C(=O)O (stereo not given) |  | > 100 µM (inactive) | > 100 µM (inactive) |  |  |  | > 100 µM (inactive) | 
N=S(=O)(c1ccccc1)c1ccccc1 |  |  |  |  | > 100 µM (inactive) | > 100 µM (inactive) | > 100 µM (inactive) | > 100 µM (inactive)
Nc1nc(=O)[nH][nH]1 |  |  | > 100 µM (inactive) | > 100 µM (inactive) | > 100 µM (inactive) |  |  | 
